US20130052134A1, “PEG-PLGA-PLL POLYMER AND METHOD FOR PREPARING AND USING THE SAME AS THE DRUG AND GENE CARRIER” (Shanghai Cancer Institute, priority 2009, published 2013)

Test system: MDA-MB-231 mammary cancer
Experiment: Therapeutic test in mice bearing MDA-MB-231 mammary cancer (tumor volume)
Assay type: in vivo, nude mice
Details: tail intravenous injection once every 4 days; treatment duration 36 days
Experimental: 0.2 ml of MDA-MB-231 mammary cancer cells (2×10^5) was subcutaneously injected to the axillary region near the forelimb of nude mice, and 2 weeks later, the tumor model was successfully established.
In the therapeutic test, corresponding normal saline, free mitoxantrone, drug-loaded mPEG-PLGA-PLL nanoparticles and drug-loaded mPEG-PLGA-PLL-RGD nanoparticles were given once every 4 days through tail intravenous injection, the tumor volume was subsequently measured, and the treatment duration was 36 days.

Question: For `O=C1c2c(O)ccc(O)c2C(=O)c2c(NCCNCCO)ccc(NCCNCCO)c21` [free mitoxantrone chloride, mitoxantrone chloride], which tumor inhibition rate is on record?
Answer: 10.32%
